Experimental data taken from PMC7827406, “Structure–Activity Relationship (SAR) Study of Spautin-1 to Entail the Discovery of Novel NEK4 Inhibitors” (International Journal of Molecular Sciences, 2021).
Where two headings read alike, the source gives them in different places.

Key:
Experiment in all cases: biochemical
Design in all cases: Eurofins KinaseProfiler full panel at Km ATP, residual kinase activity (%) relative to DMSO
[1] = target: T1, Rsk4(h) (Homo sapiens, UniProt Q9UK32)
T1 construct: gene RPS6KA6
Summary of the method: (§1)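 Radiometric kinase activity assays were run with ATP at Km and compounds at 10 µM, and remaining activity (%) was reported. A separate competitive binding screen measured DNA-tagged kinase displaced from immobilized active-site ligands by qPCR, giving percent kinase still bound at 10 µM compound in DMSO.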

[2] = target: Fes(h) (Homo sapiens, UniProt P07332)
Summary of the method: as §1

[3] = target: T2, IKKα(h) (Homo sapiens, UniProt O15111)
T2 construct: gene CHUK
T2 sequence (O15111 1-745): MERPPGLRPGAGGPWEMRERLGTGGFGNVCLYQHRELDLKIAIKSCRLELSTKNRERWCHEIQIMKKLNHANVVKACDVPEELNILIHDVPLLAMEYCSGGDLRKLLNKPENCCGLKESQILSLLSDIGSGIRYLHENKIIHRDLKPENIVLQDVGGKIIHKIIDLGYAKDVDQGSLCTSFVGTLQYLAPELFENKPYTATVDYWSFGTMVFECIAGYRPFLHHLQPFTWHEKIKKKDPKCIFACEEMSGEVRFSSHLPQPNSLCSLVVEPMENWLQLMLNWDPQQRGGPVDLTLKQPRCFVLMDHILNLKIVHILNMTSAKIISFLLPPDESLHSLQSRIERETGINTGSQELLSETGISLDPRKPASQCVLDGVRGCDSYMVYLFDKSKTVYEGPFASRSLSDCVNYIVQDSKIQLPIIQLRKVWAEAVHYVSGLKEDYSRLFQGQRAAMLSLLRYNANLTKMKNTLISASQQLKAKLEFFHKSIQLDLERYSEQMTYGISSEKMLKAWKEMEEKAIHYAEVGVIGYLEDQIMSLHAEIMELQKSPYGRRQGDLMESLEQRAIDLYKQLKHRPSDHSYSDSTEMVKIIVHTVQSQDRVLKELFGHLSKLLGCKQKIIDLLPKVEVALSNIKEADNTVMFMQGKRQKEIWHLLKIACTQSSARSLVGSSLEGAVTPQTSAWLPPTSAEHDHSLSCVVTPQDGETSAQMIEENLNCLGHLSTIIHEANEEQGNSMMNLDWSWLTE
Summary of the method: as §1

[4] = target: T3, TBK1(h) (Homo sapiens, UniProt Q9UHD2)
T3 sequence (Q9UHD2 1-729): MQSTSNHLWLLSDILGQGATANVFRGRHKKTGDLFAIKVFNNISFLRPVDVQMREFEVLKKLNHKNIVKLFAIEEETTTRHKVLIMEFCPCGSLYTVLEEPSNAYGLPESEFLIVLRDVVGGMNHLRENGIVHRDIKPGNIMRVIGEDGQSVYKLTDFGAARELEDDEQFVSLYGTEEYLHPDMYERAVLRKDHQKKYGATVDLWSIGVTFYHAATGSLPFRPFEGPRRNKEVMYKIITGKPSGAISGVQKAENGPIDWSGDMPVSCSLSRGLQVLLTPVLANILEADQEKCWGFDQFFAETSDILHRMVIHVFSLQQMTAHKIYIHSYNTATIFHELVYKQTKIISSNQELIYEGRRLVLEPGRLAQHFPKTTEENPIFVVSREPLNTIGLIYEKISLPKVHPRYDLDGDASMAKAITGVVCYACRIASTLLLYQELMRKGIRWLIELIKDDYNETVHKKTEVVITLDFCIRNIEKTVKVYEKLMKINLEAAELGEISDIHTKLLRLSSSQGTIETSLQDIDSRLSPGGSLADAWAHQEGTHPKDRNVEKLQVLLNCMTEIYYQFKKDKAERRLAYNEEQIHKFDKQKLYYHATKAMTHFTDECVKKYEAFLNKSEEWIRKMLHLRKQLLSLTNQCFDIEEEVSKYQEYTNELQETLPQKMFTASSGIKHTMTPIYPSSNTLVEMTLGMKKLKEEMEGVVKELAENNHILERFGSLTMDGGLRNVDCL
Summary of the method: as §1

[5] = target: T4, PKCι(h) (Homo sapiens, UniProt P41743)
T4 construct: gene PRKCI
T4 sequence (P41743 1-596): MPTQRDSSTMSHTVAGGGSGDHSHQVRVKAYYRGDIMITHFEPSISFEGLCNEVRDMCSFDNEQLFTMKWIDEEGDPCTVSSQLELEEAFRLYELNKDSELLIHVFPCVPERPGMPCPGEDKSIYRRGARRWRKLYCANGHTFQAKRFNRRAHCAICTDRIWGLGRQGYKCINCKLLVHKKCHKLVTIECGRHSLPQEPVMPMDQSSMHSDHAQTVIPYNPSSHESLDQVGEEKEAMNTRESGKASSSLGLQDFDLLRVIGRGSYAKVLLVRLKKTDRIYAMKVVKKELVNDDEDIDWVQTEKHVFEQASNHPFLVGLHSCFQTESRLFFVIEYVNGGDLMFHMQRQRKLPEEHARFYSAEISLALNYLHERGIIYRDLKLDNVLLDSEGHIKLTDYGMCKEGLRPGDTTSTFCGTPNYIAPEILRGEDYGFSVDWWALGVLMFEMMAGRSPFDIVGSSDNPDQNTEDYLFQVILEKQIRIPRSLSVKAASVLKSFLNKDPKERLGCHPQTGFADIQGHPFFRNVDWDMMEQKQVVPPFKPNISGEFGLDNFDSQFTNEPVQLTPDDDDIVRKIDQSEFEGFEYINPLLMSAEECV
Summary of the method: as §1

[6] = target: T5, Abl(h) (Homo sapiens, UniProt P00519)
T5 construct: gene ABL1
Summary of the method: as §1

[7] = read-out: Residual activity (%) 5ay
[8] = read-out: Residual activity (%) Spautin-1 5aa
[9] = read-out: Residual activity (%) 5at
[10] = read-out: Residual activity (%) 5as

T1 sequence (Q9UK32 whole entry): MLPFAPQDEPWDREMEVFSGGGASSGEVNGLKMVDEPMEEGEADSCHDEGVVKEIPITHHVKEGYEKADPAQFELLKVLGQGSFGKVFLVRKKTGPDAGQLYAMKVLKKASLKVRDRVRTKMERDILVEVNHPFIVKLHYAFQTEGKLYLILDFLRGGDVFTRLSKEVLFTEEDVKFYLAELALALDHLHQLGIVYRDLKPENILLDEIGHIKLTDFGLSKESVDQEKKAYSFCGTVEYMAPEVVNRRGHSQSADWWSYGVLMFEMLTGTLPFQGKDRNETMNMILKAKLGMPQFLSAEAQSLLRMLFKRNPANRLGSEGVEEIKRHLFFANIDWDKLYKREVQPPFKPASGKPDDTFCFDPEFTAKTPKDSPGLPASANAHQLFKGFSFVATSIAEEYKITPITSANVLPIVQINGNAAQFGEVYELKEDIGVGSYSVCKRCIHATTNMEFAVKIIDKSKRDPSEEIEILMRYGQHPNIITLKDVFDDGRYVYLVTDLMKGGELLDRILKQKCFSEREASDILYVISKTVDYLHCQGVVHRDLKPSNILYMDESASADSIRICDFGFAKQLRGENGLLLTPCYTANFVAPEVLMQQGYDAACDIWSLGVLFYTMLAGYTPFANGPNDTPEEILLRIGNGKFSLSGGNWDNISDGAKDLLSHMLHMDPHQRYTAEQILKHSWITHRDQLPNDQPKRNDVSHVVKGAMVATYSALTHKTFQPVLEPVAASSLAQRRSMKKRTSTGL
T5 sequence (P00519 whole entry): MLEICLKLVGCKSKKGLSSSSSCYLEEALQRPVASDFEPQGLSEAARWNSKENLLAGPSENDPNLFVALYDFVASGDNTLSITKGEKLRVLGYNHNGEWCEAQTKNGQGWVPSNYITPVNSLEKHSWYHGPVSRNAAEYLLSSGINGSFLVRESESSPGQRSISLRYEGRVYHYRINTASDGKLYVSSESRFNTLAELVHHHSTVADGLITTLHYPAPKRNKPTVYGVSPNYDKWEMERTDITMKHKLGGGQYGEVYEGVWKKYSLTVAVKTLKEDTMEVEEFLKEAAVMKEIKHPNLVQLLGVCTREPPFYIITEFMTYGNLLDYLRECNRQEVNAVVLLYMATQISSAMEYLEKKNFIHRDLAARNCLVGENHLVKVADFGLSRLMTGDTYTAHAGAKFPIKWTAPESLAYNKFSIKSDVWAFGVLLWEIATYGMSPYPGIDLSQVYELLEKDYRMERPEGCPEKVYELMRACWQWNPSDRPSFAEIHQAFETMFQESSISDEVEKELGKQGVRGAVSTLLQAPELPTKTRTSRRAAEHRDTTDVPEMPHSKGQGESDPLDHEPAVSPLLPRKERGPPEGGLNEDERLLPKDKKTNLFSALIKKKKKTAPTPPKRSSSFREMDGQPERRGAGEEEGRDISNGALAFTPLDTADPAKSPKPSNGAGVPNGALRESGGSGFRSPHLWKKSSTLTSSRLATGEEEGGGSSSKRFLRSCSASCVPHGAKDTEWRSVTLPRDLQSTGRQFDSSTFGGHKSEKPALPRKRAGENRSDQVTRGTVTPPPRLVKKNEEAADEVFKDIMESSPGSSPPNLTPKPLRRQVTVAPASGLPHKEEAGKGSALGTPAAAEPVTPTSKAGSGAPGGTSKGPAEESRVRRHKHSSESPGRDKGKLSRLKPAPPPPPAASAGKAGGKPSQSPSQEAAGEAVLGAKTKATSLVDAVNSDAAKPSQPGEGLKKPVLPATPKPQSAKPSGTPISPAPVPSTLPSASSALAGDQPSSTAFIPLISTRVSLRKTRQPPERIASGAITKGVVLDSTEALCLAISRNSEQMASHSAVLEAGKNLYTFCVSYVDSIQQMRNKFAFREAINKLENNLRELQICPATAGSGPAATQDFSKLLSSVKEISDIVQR
Sequence of Fes(h) (P07332 whole entry): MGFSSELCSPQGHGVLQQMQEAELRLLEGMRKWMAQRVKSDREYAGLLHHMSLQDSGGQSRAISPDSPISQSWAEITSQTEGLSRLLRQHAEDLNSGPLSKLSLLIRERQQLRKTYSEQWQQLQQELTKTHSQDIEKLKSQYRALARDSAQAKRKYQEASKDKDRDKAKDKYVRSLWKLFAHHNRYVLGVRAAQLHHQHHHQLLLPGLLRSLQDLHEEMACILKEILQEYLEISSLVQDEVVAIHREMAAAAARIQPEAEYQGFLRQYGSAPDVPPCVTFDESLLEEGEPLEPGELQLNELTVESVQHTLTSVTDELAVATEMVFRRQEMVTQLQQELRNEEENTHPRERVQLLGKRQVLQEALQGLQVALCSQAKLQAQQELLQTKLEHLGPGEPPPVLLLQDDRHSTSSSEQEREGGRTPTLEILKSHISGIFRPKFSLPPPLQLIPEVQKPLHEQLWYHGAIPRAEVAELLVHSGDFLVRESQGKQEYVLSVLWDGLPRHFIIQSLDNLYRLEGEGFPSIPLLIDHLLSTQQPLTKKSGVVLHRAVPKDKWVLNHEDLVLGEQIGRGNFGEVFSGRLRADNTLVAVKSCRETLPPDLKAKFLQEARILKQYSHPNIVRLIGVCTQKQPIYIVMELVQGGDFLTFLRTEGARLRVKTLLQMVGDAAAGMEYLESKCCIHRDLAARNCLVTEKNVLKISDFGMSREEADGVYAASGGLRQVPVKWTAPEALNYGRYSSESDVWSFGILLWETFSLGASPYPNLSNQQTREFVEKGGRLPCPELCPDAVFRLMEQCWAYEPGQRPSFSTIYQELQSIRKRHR

## COc1ccc2ncnc(Nc3cccc(F)c3)c2c1 [5ay, N-(3-Fluorophenyl)-6-Methoxy-4-Quinazolinamine]
[1]; [7]
  remaining activity at 10 µM: 100%
[2]; [7]
  remaining activity at 10 µM: 93%
[3]; [7]
  remaining activity at 10 µM: 86%
[4]; [7]
  remaining activity at 10 µM: 117%
[5]; [7]
  remaining activity at 10 µM: 89%
[6]; [7]
  remaining activity at 10 µM: 74%

## Fc1ccc(CNc2ncnc3ccc(F)cc23)cc1 [5aa, 6-Fluoro-N-(4-fluorobenzyl)-4-Quinazolinamine]
[1]; [8]
  remaining activity at 10 µM: 117%
[2]; [8]
  remaining activity at 10 µM: 91%
[3]; [8]
  remaining activity at 10 µM: 72%
[4]; [8]
  remaining activity at 10 µM: 126%
[5]; [8]
  remaining activity at 10 µM: 84%
[6]; [8]
  remaining activity at 10 µM: 83%

## Fc1ccc2ncnc(NCCc3ccc(Cl)cc3)c2c1 [5at, N-[2-(4-Chlorophenyl)Ethyl]-6-Fluoro-4-Quinazolinamine]
[1]; [9]
  remaining activity at 10 µM: 92%
[2]; [9]
  remaining activity at 10 µM: 81%
[3]; [9]
  remaining activity at 10 µM: 91%
[4]; [9]
  remaining activity at 10 µM: 108%
[5]; [9]
  remaining activity at 10 µM: 98%
[6]; [9]
  remaining activity at 10 µM: 96%

## Fc1ccc(CCNc2ncnc3ccc(F)cc23)cc1 [5as, 6-Fluoro-N-[2-(4-Fluorophenyl)Ethyl]-4-Quinazolinamine]
[1]; [10]
  remaining activity at 10 µM: 81%
[2]; [10]
  remaining activity at 10 µM: 92%
[3]; [10]
  remaining activity at 10 µM: 100%
[4]; [10]
  remaining activity at 10 µM: 108%
[5]; [10]
  remaining activity at 10 µM: 114%
[6]; [10]
  remaining activity at 10 µM: 91%
